Test results published in patent US10829441B2, “Reactive oxygen species-sensitive nitric oxide synthase inhibitors for the treatment of ischemic stroke” (The University of Toledo, priority 2017, dated 2020).
Where “and” joins values, the source holds several entries; their conditions need not be identical. Equal values may be shown once. Entries after “also recorded” stand apart in the source; their conditions may differ.

Columns and labels:
[1] = test system: LPS-stimulated SIM-A9 cells; assay: Griess assay of nitrite in LPS-stimulated SIM-A9 microglia; type: cell-based, mouse; details: LPS 100 ng/mL; for nitrite / NO production after LPS (in words): 1.0 μM to 50 μM, 24 hr (FIG. 14); for nitrite after LPS (in words): 24 hr (FIG. 15B); for decrease in nitrite: 24 hr
Protocol: (§1) Human neuroblastoma SH-SY5Y cells and SIM-A9 mouse microglia (ATCC) were separately cultured on poly-D-lysine coated plates in 1:1 Dulbecco's Modified Eagle Medium/Ham's F12 (DMEM/F12) medium containing 5% fetal bovine serum, 5% horse serum, and penicillin-streptomycin. Cultures were stored in a 37° C. incubator with a 5% CO2 atmosphere. Cells were allowed to adhere overnight prior to subjection to experimental systems. 1×10^6 cells SH-SY5Y cells on 96-well plates were used for OGD experiments, and SIM-A9 cells were plated at a density of 1×10^6 on 24-well plates for Griess experiments.
SIM-A9 cells were treated with 100 ng/mL lipopolysaccharide (LPS, Sigma) along with vehicle or drug treatment for 24 hr. Conditioned medium was then diluted 1:1 with griess reagent (0.4% naphthylethylenediamine dihydro-chloride, and 4% sulphanilamide in 10% phosphoric acid), and analyzed by colorimetry at 540 nm after […]. Nitrite levels were reported as a ratio to LPS-treated, vehicle control.

SH-SY5Y cells [2] = assay: Oxygen-glucose deprivation (OGD) viability of SH-SY5Y cells (PrestoBlue); type: cell-based, Human; details: for viability relative to vehicle (in words) / viability, ratio to vehicle control: 1.5 hr OGD, 24 hr treatment
Protocol: as §1
(§2) Growth medium was removed from SH-SY5Y cells and replaced with sterile HBSS (140 mM NaCl, 3.5 mM KCl, 0.4 mM KH2PO4, 5 mM NaHCO3, 1.3 mM CaCl2, 1.2 mM MgSO4, 20 mM HEPES, pH 7.4, bubbled with 95%/5% N2/CO2), and placed in an air-tight container subsequently purged three times with 95%/5% N2/CO2. The container was then placed in a 37° C. incubator for 1.5 hr. After OGD, the cells were returned to a normoxic environment, and medium was replaced with growth medium and vehicle or treatment for 24 hr to simulate reperfusion. Sham cells were left in growth medium under a normoxic environment. Viability was measured by adding 10% Presto-Blue® Cell Viability Reagent (Thermo Fisher) for 30 min, and reading fluorescence at 560 nm/590 nm excitation/emission. Viability is reported as a ratio to vehicle-treated control, and readings result from separate OGD experiments (e.g. n=6 was from 6 different OGD assays). The experimental furoxan IS-1-41 was used as a positive control for OGD viability due to its reproducible protection in this paradigm.

[3] = test system: phospho-Akt/total Akt ratio; assay: Western blot of SH-SY5Y cells exposed to OGD: pAkt/Akt; type: cell-based, Human; details: 1.0 μM, 24 hr treatment
[4] = HPLC-PDA analysis of nitrone decomposition in radical-generating systems; type: physicochemical; details: for decomposition to aldehyde in .OH (Fe—H2O2) system (in words) / decomposition to aldehyde in O2.^−/HO2. (KO2) system (in words) / decomposition to aldehyde in ONOO^−/HCl system (in words): 24 hr incubation at 37° C.
Protocol: To a stirring solution of 5 (5.0 mg, 1.0 eq) in 785 μL PBS was added 20 μL 6 N HCl at 37° C. Peroxynitrite (200 μL of a 50 mM solution in 0.3 M NaOH, 0.5 eq) was added in 50 μL aliquots over 5 min. The reaction was allowed to stir for 1 hr and monitored by HPLC-PDA. The solution was extracted with CH2Cl2 (2×0.5 mL) and the aqueous fractions were pooled then lyophilized. Addition of ACN (1.0 mL) to the white solid followed by filtration allowed separation from the insoluble salts. Lyophilization afforded 6 as a white solid (1.2 mg, 33.7%), NMR (CD3OD, 400 MHz): δ 10.04 (1H, s), δ 7.93-7.95 (2H, m), δ 7.71-7.65 (2H, m), 4.58 (2H, s), δ 2.30 (3H, s).
EPR spectra were collected at ambient temperature with microwave power 12.6 mW, frequency 9.86 GHz, receiver gain 1.0×10^5 or 1.0×10^4, modulation amplitude 1 G, scan time 20.48 sec, time constant 40.96 msec, and sweep width 120 G. Phosphate buffered saline (PBS) used for EPR was supplemented with diethylenetriaminepent-acetic acid (DTPA, 100 μM). ROS-generating solutions were rapidly added to solutions of indicated spin trap and taken up in 50 μL glass capillary tubes for EPR spectral acquisition. For HPLC-PDA analysis, solutions were allowed to incubate for 24 hr at 37° C., then diluted 1:1000 in 95:5 mobile phase A:B, and analyzed as above. Benzaldehyde (Sigma) was run separately as a control to compare to PBN-ROS systems and confirm PBN decomposition.
A 50 μL final 20% PBS/DMSO solution of 35 mM 5 or PBN contained 10 μL saturated KO2 DMSO.
A 50 μL final 30% PBS/DMSO solution of 35 mM 5 or PBN contained 90 mM FeSO4 and 1% H2O2.
A solution of ONOO^− in 0.3 M NaOH (Cayman Chemical) was determined to be 50 mM by absorbance at 302 nm using the literature extinction coefficient (1670 M^−1cm^−1). A 50 μL final 30% PBS/DMSO solution of 5 or PBN contained 10 mM ONOO^− at pH˜6 (HCl).

3-Nitrotyrosine (3-NT) = assay: Western blot of SH-SY5Y cells exposed to OGD: 3-nitrotyrosine; type: cell-based, Human; details: 1.0 μM, 24 hr treatment, vs vehicle
cleaved caspase-3 = assay: Western blot of SH-SY5Y cells exposed to OGD: cleaved caspase-3; type: cell-based, Human; details: 1.0 μM, 24 hr treatment, vs vehicle
SH-SY5Y cells [5] = assay: OGD-induced formation of 6 from 5 in SH-SY5Y cells by LC-MS/MS; type: cell-based, Human; details: for level of 6 as 6:5 AUC: cell lysate (intracellular); for level of 6: supernatant
Protocol: as §2
(§3) Synthesized 5, and purchased 4(1H-Imidazol-1-yl)benzaldehyde (IBA, Sigma) were used to determine LC-MS/MS fragmentation. A solution of 5+ONOO^−/HCl from EPR studies was used for 6 fragmentation. MRM analysis of IBA (m/z 173.10→91.10, 104.10, 117.05; RT: 4.13 min), 5 (m/z 248.20→148.00, 134.15, 190.05; RT: 4.81 min), and 6 (m/z 177.00→119.10, 90.95, 65.15; RT: 3.87 min) were determined. A standard curve for 5 was generated using pure samples applied to blank matrix (0.01 μM, 0.1 μM, 0.5 μM, 1.0 μM, and 5.0 μM; R2=0.99) using the above HPLC solvents and LC curve at 0.4 mL/min.
(§4) In vitro supernatant samples were spiked with internal standard (200 μL 500 nM IBA in 2% FA) and used as collected, while cells were detached by trypsin, centrifuged (14 k rpm, 5 min, 4° C.) to isolate the pellet, then lysed by sonication (Sonic Dismembrator 500, Fisher) in 1 mL cold PBS+internal standard. Blood samples (100 μL) were spiked with internal standard, and centrifuged to collect the supernatant. Brain samples were weighed, homogenized by a Bullet Blender Storm (Next Advance Inc.) in 500 μL cold PBS+internal standard for 1 min at 4° C., then centrifuged to collect the supernatant. All samples were then worked up by solid phase extraction (Evolute Ex-press ABN cartridge, 30 mg/l mL, Biotage) using a Vac-master manifold (Biotage). Columns were washed with dH2O (1 mL), and analytes were eluted with MeOH (1 mL) and evaporated to dryness by high flow air purge. Samples were reconstituted in 200 μL 95:5 mobile phase A:B and analyzed by LC-MS/MS (2.0 μL injection volume). All samples were run in duplicate, and AUC for 5 and 6 were normalized to the intra-run IBA AUC to account for loss during workup. 5 concentrations were determined using std. curve, while 6 was expressed as a percentage of 5 AUC.

[6] = test system: cerebral blood flow (CBF); assay: Laser Doppler cerebral blood flow (CBF) over the MCA of anesthetized mice; type: in vivo, C57BL/6 mice; details: for time point at which CBF increased: isoamyl nitrate vs low dose of 5 (1 mg/kg), intravenous
Protocol: (§5) Animals were anesthetized and the incision was performed as above to expose the temporal bone, through which the MCA was visible. The end of a fiber optic cable fitted to a MoorVMS-LDF Laser Doppler Monitor (Moor Instruments) was positioned in place over the MCA. The baseline CBF as flux was monitored for 5 min prior to intravenous injection by lateral tail vein of normal saline vehicle, […] (20 mg/kg), or 5. Measurements were taken every 5 minutes in triplicate for each animal, and reported as ratio to baseline. Animals were sacrificed at 25 min by CO2 inhalation, blood was collected into K2EDTA coated tubes (BD Microtainer®), and brains were rapidly dissected out and frozen on dry ice for LC-MS/MS analysis.

[7] = Plasma and brain levels of 5 and 6 by LC-MS/MS 25 min after intravenous administration; type: in vivo, C57BL/6 mice
Protocol: as §5, §3, §4

[8] = test system: permanent MCA occlusion (pMCAO); type: in vivo
[9] = 25 min after intravenous 5, n=6

For `CC(=N)NCc1cccc(CN)c1` [1400W, reference compound], the “nitrite / NO production after LPS (in words)” value (shortened to “nitrite / NO production”) [1] was “anti-inflammatory ability” and the “nitrite after LPS (in words)” value ([1]; 1.0 μM) was “attenuated”.

For `CC(C)(C)[N+]([O-])=Cc1ccccc1` [PBN, N-tert-butyl-α-phenylnitrone, reference compound], the “viability relative to vehicle (in words)” value (SH-SY5Y cells [2]; 0.05 μM to 100 μM) was “did not approach significance at any concentration tested”, the “phospho-Akt/total Akt ratio (in words)” value [3] was “increase was also observed; also recorded: increase in Akt phosphorylation, although not significant” and the “nitrite / NO production” value [1] was “not observed to cause a reduction in nitrate”. For the same molecule, the “nitrite after LPS (in words)” value ([1]; 1.0 μM) was “attenuated”, the “decomposition to aldehyde in .OH (Fe—H2O2) system (in words)” value [4] was “minor formation” and the “decomposition to aldehyde in O2.^−/HO2. (KO2) system (in words)” value [4] was “Significant BnA formation”. The “decomposition to aldehyde in ONOO^−/HCl system (in words)” value [4] was “Significant BnA formation”.

With `CC(=N)NCc1cccc(/C=[N+](\[O-])C(C)(C)C)c1` [compound 5, N-tert-butyl-α-(3-[ethanimidamidomethyl]phenyl)nitrone] the “viability, ratio to vehicle control” value (SH-SY5Y cells [2]; 0.1 μM) was 1.21 times greater than vehicle, the “viability, ratio to vehicle control” value (SH-SY5Y cells [2]; 1.0 μM) was 2.57 times greater than vehicle and the “viability relative to vehicle (in words)” value (SH-SY5Y cells [2]; 100 μM) was “decline to baseline; also recorded: not observed to be toxic, but rather non-neuroprotective”. For the same molecule, the “optimal dose (highest neuroprotection)” value (SH-SY5Y cells [2]; dose-finding study 0.05 μM to 100 μM) was 1.0 µM, the “phospho-Akt/total Akt ratio” value ([3]; vs vehicle) was 4.1 times higher and the 3-NT ameliorated (3-Nitrotyrosine (3-NT)) was 48%. The “cleaved caspase-3 reduction” value (cleaved caspase-3) was 47%, the “nitrite / NO production” value [1] was “not observed to lower NO production” and the “nitrite after LPS (in words)” value ([1]; 1.0 μM) was “attenuated”. For the same molecule, the “cell permeability (in words)” value (SH-SY5Y cells [5]) was “cell permeable”, the “CBF over 20 min” value ([6]; 1 mg/kg intravenous) was 126%±4.6% and the “CBF over 20 min” value ([6]; 10 mg/kg intravenous) was 102%±0.7%. For the same molecule, the “time point at which CBF increased” value [6] was 5 min, the Kp at 25 min ([7]; C57BL/6, mouse, in vivo) was 0.029 ± 0.01 and the “half-life (in words)” value ([7]; mouse, in vivo) was “short half-life”. The “tolerability / adverse effects” value ([8]; 10 mg/kg and 1 mg/kg intravenous) was “well tolerated”, the “forelimb grip strength (in words)” value ([8]; 24, 48, 72 hr after pMCAO) was “improved grip strength” and the “rota rod performance (in words)” value ([8]; 24, 48, 72 hr after pMCAO) was “No significant differences”. The “Neurological deficit scoring (NDS), 28-point system” value ([8]; 72 hr after pMCAO, 10 mg/kg iv at 3 and 6 hr, then 1 mg/kg twice daily) was 4.2±0.4, the “decrease in infarct volume compared to vehicle” value ([8]; TTC staining 72 hr after pMCAO, 10 mg/kg iv at 3 and 6 hr, then 1 mg/kg twice daily) was > 30% and 37% and the “conversion of 5 to 6 by HPLC-PDA” value ([4]; 0.50 eq ONOO^−, PBS/HCl pH 6, 37° C., after one hour) was 95.4%. For the same molecule, the “decomposition to aldehyde in .OH (Fe—H2O2) system (in words)” value [4] was “substantial formation of 6; also recorded: Minor 6 formation”, the “decomposition to aldehyde in O2.^−/HO2. (KO2) system (in words)” value [4] was “substantial formation of 6; also recorded: significant 6 formation” and the “decomposition to aldehyde in ONOO^−/HCl system (in words)” value [4] was “complete conversion; also recorded: no observed 5 remaining”.

For `CC(=N)NCc1cccc(C=O)c1` [compound 6, N-[(3-formylphenyl)methyl]ethanimidamide], the “nitrite / NO production” value [1] was “dose-dependent decrease in nitrite”, the decrease in nitrite ([1]; 1.0 μM) was roughly 19% and the decrease in nitrite ([1]; 50 μM) was −33%. For the same molecule, the “level of 6 as 6:5 AUC” value (SH-SY5Y cells [5]; OGD-exposed cells treated 24 hr with 10 μM 5) was 129 % 6:5 AUC, the “level of 6 as 6:5 AUC” value (SH-SY5Y cells [5]; sham cells treated 24 hr with 10 μM 5) was 29 % 6:5 AUC and the “level of 6” value (SH-SY5Y cells [5]; OGD-exposed cells treated with 5) was 18.6 % of 5 AUC. For the same molecule, the “level of 6” value (SH-SY5Y cells [5]; sham cells treated with 5) was 7.88 % of 5 AUC, the “level of 6 in brain” value [7, 9] was 24.5%±0.1% and the “level of 6 in plasma” value [7, 9] was 12.7%±0.2%.

With `CC(C)CCO[N+](=O)[O-]` [isoamyl nitrate, reference compound] the “CBF over 20 min” value ([6]; 20 mg/kg intravenous) was 111%±4.0% and the “time point at which CBF increased” value [6] was 20 min.
